Experimental data taken from patent publication US20230382934A1, “HIGH ENTROPY OXIDES AND METHODS OF SYNTHESIS AND USE THEREOF” (Auburn University, priority 2022, published 2023).

Legend:
[1] = Catalase activity (degradation of H2O2, absorbance at 240 nm); assay type: biochemical; conditions: Mn(II) complex, 100 nM, 10 mM H2O2, 100 mM phosphate pH 7.0
Procedure: (§1) FIG. 31 depicts representative kinetic traces for the reaction between 100 nM 1 and 10 mM H2O2 in 100 mM phosphate solution buffered to pH 7.0. The absorbance at 240 nm was monitored over time. Activity values were calculated using the UV-1601PC Kinetics program and converted to an initial rate (vo/[1]T) using the following equation: vo/[1]T=(activity)/[60 s×0.01 μM×0.0000394 μM^−1 cm^−1×1.0 cm].
as §1, with “FIG. 66” for “FIG. 31”, “in 200” for “in 100”, “vo/[1]T=(activity)/[60 s×0.1” for “vo/[1]T=(activity)/[60 s×0.01”, “cm^−1×1.0 cm]” for “cm^−1×1.0 cm].”
FIG. 67, comprising FIG. 67A and FIG. 67B, depicts a Michaelis-Menten fit of the activity of 1. FIG. 67A depicts activity of 1 with increasing concentrations of H2O2. All reactions were performed in 200 mM phosphate buffered to pH 7.0 at 25° C. with an initial 100 nM concentration of 1. […]
In order to assess the ability of the Mn(II) complex to catalyze the degradation of H2O2, we reacted 100 nM 1 with 10 mM H2O2 in 100 mM phosphate solution buffered to pH 7.0 and monitored the absorbance at 240 nm over time. […] The consumption of H2O2 was evaluated using a UV-1601 Shimadzu spectrophotometer.

[2] = T1-weighted relaxivity response to H2O2, 3 T clinical MRI scanner; conditions: Example 1, Mn(II) complex with H4qp4
Procedure: The relaxivities of complex 1 before and during its reaction with H2O2 were assessed using a 3 T MRI scanner (FIG. 27D). T1 values were measured for aqueous solutions containing 0-1.0 mM 1 and 50 mM HEPES buffered to pH 7.00. For each concentration of 1, an oxidized sample was also prepared by adding 10 mM H2O2; the large excess of oxidant was used to ensure as full a turn-on as possible at the timepoints and to facilitate comparisons to manganese-containing MRI contrast agents that were previously prepared and characterized. The T1 values for the H2O2-containing solutions were measured 1 h and 2 h after the reagents were initially mixed. Full series of data were collected for two independently prepared batches of 1 in order to confirm that the results were replicable.
The MRI properties of 1 were assessed using methods that were previously employed in studies of manganese-containing MRI contrast agents. The relaxivity of 1 was measured before and after its reaction with excess H2O2 using a 3 T MRI scanner (FIG. 51). The r1 for the pre-activated complex was calculated from the T1 values of aqueous solutions containing 50 mM HEPES buffered to pH 7.00 and 0-1 mM 1. T1 measurements were also acquired for oxidized samples that contained 10 mM H2O2 in addition to the aforementioned reagents. The T1 values were measured 30 min and 60 min after the solution samples were initially prepared. […]

## (1,8-Bis(2,5-dihydroxybenzyl)-1,4,8,11tetraazacyclotetradecane)manganese(II) triflate [Complex 1]
[1]
  initial rate vo/[1]T: 6600 s⁻¹
[2]
  increase in r1 upon oxidation by H2O2: 130%
